Test system: 20 different rhinoviruses
Experiment: Summary of WI-38 tissue culture testing against 20 rhinoviruses
Format: cell-based
Conditions: of 20 rhinoviruses
Experimental: The test compound was dissolved in an appropriate solvent (generally dimethyl sulfoxide) and incubated at 56° C. for at least 15 minutes and this solution was then used to prepare various test solutions having the desired concentration of test compound in preheated WI maintenance medium (49% Eagles, 49% medium 199, 2% fetal calf serum and antibiotics).
Triplicate cell culture tubes (WI-38 human embryonic lung cell culture tubes) were fed with 1 ml of medium containing the compound at specified concentrations and inoculated with 3-300 TCID50 (3-300 times the tissue culture infective dose 50, i.e., the dose required to infect 50% of the cell cultures tested). Simultaneous viral titrations were performed. The tissue cultures were supplemented with fresh medium when necessary (around 3-4 days) until viral titrations were completed.
The cell culture tubes were examined dialy for cytopathic effect. […] Comparisons were made at that time with the percentage of cell sheet destruction in tubes containing virus compound mixtures. Observed differences of 75% or more were graded "+", 74-50% as "±", and less than 50% as "-" inhibition.

SMILES	number of test rhinoviruses against which the compound was graded "+" (25 μg/ml) [test rhinoviruses]	number of test rhinoviruses against which the compound was graded "±" (25 μg/ml)	number of test rhinoviruses against which the compound was graded "+" (12.5 μg/ml) [test rhinoviruses]	number of test rhinoviruses against which the compound was graded "±" (12.5 μg/ml)
CCS(=O)(=O)c1ccc(Oc2ccc(Cl)c(Cl)c2)nc1 [2-(3,4-dichlorophenoxy)-5-(ethylsulfonyl)pyridine]	14	3		
CS(=O)(=O)c1ccc(Oc2ccc(Cl)c(Cl)c2)nc1 [2-(3,4-dichlorophenoxy)-5-(methylsulfonyl)pyridine]	14	2		
CCS(=O)(=O)c1ccc(Oc2ccc(Cl)cc2)nc1 [2-(4-chlorophenoxy)-5-(ethylsulfonyl)pyridine]			13	4
CS(=O)(=O)c1ccc(Oc2ccc(Cl)cc2)nc1 [2-(4-chlorophenoxy)-5-(methylsulfonyl)pyridine]			13	3

From patent US4371537A, “Sulfur-substituted phenoxypyridines having antiviral activity” (The Dow Chemical Company, priority 1981, dated 1983)
